Reference: US6706664B1, “Benzoxazole compounds, process for the preparation thereof and herbicides” (UBE Industries, Ltd., priority 1999, dated 2004)

Tests used:
Parameters in all cases: key: 0: normal development; 1: Less damaged; 2: Slightly damaged; 3: Moderately damaged; 4: Severely damaged; 5: All killed
corn [1] = test: Soil treatment test for upland field; assay type: in vivo; details: 500 g/ha, glass house 25° C., 3 weeks
In short: (§1)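 Damage rated on a 0–5 scale (0 normal development, 5 all killed) after 3 weeks in a glasshouse at about 25 °C. Compounds applied as a water-diluted wettable powder (0.05% surfactant) sprayed at 500 g/ha onto soil surface over freshly sown seeds in alluvial Ube soil.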

solgum [2] = test: Soil treatment test for upland field; assay type: in vivo; details: 500 g/ha, glass house 25° C., 3 weeks
In short: as §1

soybean [3] = test: Soil treatment test for upland field; assay type: in vivo; details: 500 g/ha, glass house 25° C., 3 weeks
In short: as §1

sugar beat [4] = test: Soil treatment test for upland field; assay type: in vivo; details: 500 g/ha, glass house 25° C., 3 weeks
In short: as §1

wheat [5] = test: Soil treatment test for upland field; assay type: in vivo; details: 500 g/ha, glass house 25° C., 3 weeks
In short: as §1

Large crabgrass [6] = test: Soil treatment test for upland field; assay type: in vivo, Digitaria adscendens; details: 500 g/ha, glass house 25° C., 3 weeks
In short: as §1

barnyardgrass [7] = test: Soil treatment test for upland field; assay type: in vivo, Echinochloa crusgalli; details: 500 g/ha, glass house 25° C., 3 weeks
In short: as §1

green foxtail [8] = test: Soil treatment test for upland field; assay type: in vivo, Setaria viridis; details: 500 g/ha, glass house 25° C., 3 weeks
In short: as §1

annual bluegrass [9] = test: Soil treatment test for upland field; assay type: in vivo, Poa annua; details: 500 g/ha, glass house 25° C., 3 weeks
In short: as §1

common lambsquartes [10] = test: Soil treatment test for upland field; assay type: in vivo, Chenopodium album; details: 500 g/ha, glass house 25° C., 3 weeks
In short: as §1

livid amaranth [11] = test: Soil treatment test for upland field; assay type: in vivo, Amaranthus lividus; details: 500 g/ha, glass house 25° C., 3 weeks
In short: as §1

corn [12] = test: Foliar spread test for upland field; assay type: in vivo; details: foliar spray 500 ppm, 3 weeks, rank vs non-treated
In short: (§2)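 Wettable powders at 500 ppm, with 0.5% surfactant, were sprayed uniformly over plants raised for roughly 2 weeks in glasshouse pots of volcanic ash soil. Herbicidal damage rated on a 0–5 scale (5 = all killed) after a further 3 weeks at an average 25 °C.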

cotton [13] = test: Foliar spread test for upland field; assay type: in vivo; details: foliar spray 500 ppm, 3 weeks, rank vs non-treated
In short: as §2

solgum [14] = test: Foliar spread test for upland field; assay type: in vivo; details: foliar spray 500 ppm, 3 weeks, rank vs non-treated
In short: as §2

soybean [15] = test: Foliar spread test for upland field; assay type: in vivo; details: foliar spray 500 ppm, 3 weeks, rank vs non-treated
In short: as §2

sugar beat [16] = test: Foliar spread test for upland field; assay type: in vivo; details: foliar spray 500 ppm, 3 weeks, rank vs non-treated
In short: as §2

wheat [17] = test: Foliar spread test for upland field; assay type: in vivo; details: foliar spray 500 ppm, 3 weeks, rank vs non-treated
In short: as §2

Large crabgrass [18] = test: Foliar spread test for upland field; assay type: in vivo, Digitaria adscendens; details: foliar spray 500 ppm, 3 weeks, rank vs non-treated
From the text: (§3) (0: normal development, 1: Less damaged, 2: Slightly damaged, 3: Moderately damaged, 4: Severely damaged, 5: All killed).
(§4) Wagner pots, each having an area of 1/5000 are, were packed with volcanic ash soil and then each seed of corn, soybean, cotton, wheat, solgum, sugar beat, Large crabgrass, barnyardgrass, green foxtail, blackgrass, annual bluegrass, common lambsquartes, livid amaranth, velvetleaf and morning glory was planted, covered with soil and grown in a glass house at an average temperature of […] for about 2 weeks.
(§5) Each wettable powder of the desired compounds (I) shown in Table 1 prepared in accordance with Example 2 was diluted to 500 ppm with water containing a surfactant (0.5%) and then uniformly sprayed on the above respective plants.
(§6) After these plants were controlled in a glass house at an average temperature of 25° C. for 3 weeks, the herbicidal effects thereof were investigated.
(§7) The herbicidal effects were evaluated according to the evaluation method described in the above (1).

green foxtail [19] = test: Foliar spread test for upland field; assay type: in vivo, Setaria viridis; details: foliar spray 500 ppm, 3 weeks, rank vs non-treated
In short: as §2

blackgrass [20] = test: Foliar spread test for upland field; assay type: in vivo, Alopecurus aegualis; details: foliar spray 500 ppm, 3 weeks, rank vs non-treated
From the text: as §3, §4, §5, §6, §7

annual bluegrass [21] = test: Foliar spread test for upland field; assay type: in vivo, Poa annua; details: foliar spray 500 ppm, 3 weeks, rank vs non-treated
From the text: as §3, §4, §5, §6, §7

common lambsquartes [22] = test: Foliar spread test for upland field; assay type: in vivo, Chenopodium album; details: foliar spray 500 ppm, 3 weeks, rank vs non-treated
In short: as §2

livid amaranth [23] = test: Foliar spread test for upland field; assay type: in vivo, Amaranthus lividus; details: foliar spray 500 ppm, 3 weeks, rank vs non-treated
In short: as §2

velvetleaf [24] = test: Foliar spread test for upland field; assay type: in vivo, Abutilon theophrasti; details: foliar spray 500 ppm, 3 weeks, rank vs non-treated
In short: as §2

morning glory = test: Foliar spread test for upland field; assay type: in vivo, Ipomoea spps.; details: foliar spray 500 ppm, 3 weeks, rank vs non-treated
From the text: as §3, §4, §5, §6, §7

cotton [25] = test: Soil treatment test for upland field; assay type: in vivo; details: 500 g/ha, glass house 25° C., 3 weeks
In short: as §1

blackgrass [26] = test: Soil treatment test for upland field; assay type: in vivo, Alopecurus aegualis; details: 500 g/ha, glass house 25° C., 3 weeks
In short: as §1

velvetleaf [27] = test: Soil treatment test for upland field; assay type: in vivo, Abutilon theophrasti; details: 500 g/ha, glass house 25° C., 3 weeks
In short: as §1

barnyardgrass [28] = test: Foliar spread test for upland field; assay type: in vivo, Echinochloa crusgalli; details: foliar spray 500 ppm, 3 weeks, rank vs non-treated
From the text: as §3, §4, §5, §6, §7

Structure (SMILES) | Effects Solgum (solgum [2]) | Effects Soybean (soybean [3]) | Effects Sugar beat (sugar beat [4]) | Effects Wheat (wheat [5]) | Effects Large crabgrass (Large crabgrass [6]) | Effects Barnyardgrass (barnyardgrass [7]) | Effects Green foxtail (green foxtail [8]) | Effects Annual bluegrass (annual bluegrass [9]) | Effects Common lambsquarters (common lambsquartes [10]) | Effects Livid amaranth (livid amaranth [11]) | Effects Corn (corn [12]) | Effects Solgum (solgum [14]) | Effects Sugar beat (sugar beat [16]) | Effects Wheat (wheat [17]) | Effects Large crabgrass (Large crabgrass [18]) | Effects Green foxtail (green foxtail [19]) | Effects Blackgrass (blackgrass [20]) | Effects Common lambsquarters (common lambsquartes [22]) | Effects Livid amaranth (livid amaranth [23]) | Effects Velvetleaf (velvetleaf [24]) | also measured
CC(Oc1cccc(C(F)(F)F)c1)c1nc2ccc(C(F)(F)F)cc2o1 (centres unmarked) [Compound 86] | 0 | 0 | 2 | 0 | 5 | 3 | 4 | 1 | 1 | 5 | 1 | 0 | 2 | 1 | 2 | 2 | 1 | 2 | 3 | 1 | Effects Corn (corn [1]): 0; Effects Cotton (cotton [13]): 1; Effects Soybean (soybean [15]): 2; Effects Annual bluegrass (annual bluegrass [21]): 1; Effects Morning glory (morning glory): 3
CCC(Oc1cccc(S(C)(=O)=O)c1)c1nc2cc(S(C)(=O)=O)ccc2o1 (centres unmarked) [Compound 513] | 2 | 2 | 5 | 2 | 5 | 4 | 5 | 5 | 5 | 5 |  | 3 | 5 |  | 5 | 5 | 5 | 5 | 5 | 5 | Effects Cotton (cotton [25]): 2; Effects Blackgrass (blackgrass [26]): 3; Effects Velvetleaf (velvetleaf [27]): 5; Effects Barnyardgrass (barnyardgrass [28]): 3; Effects Annual bluegrass (annual bluegrass [21]): 5; Effects Morning glory (morning glory): 3
CCC(Oc1ccc(F)c(C(F)(F)F)c1)c1nc2cc(NC(=O)C(F)(F)F)ccc2o1 (centres unmarked) [Compound 518] |  |  |  |  |  |  |  |  |  |  | 0 | 0 | 5 | 0 | 2 | 5 | 2 | 2 | 2 | 3 | Effects Cotton (cotton [13]): 0; Effects Soybean (soybean [15]): 0
CCC(Oc1ccc(Cl)c(C(F)(F)F)c1)c1nc2cc(C#N)c(Cl)cc2o1 (centres unmarked) [Compound 534] | 1 | 2 | 5 | 1 | 5 | 4 | 5 | 5 | 5 | 5 | 2 | 2 | 5 | 2 | 2 |  | 3 | 4 | 5 | 5 | Effects Corn (corn [1]): 2; Effects Blackgrass (blackgrass [26]): 4; Effects Velvetleaf (velvetleaf [27]): 5; Effects Barnyardgrass (barnyardgrass [28]): 2; Effects Annual bluegrass (annual bluegrass [21]): 4; Effects Morning glory (morning glory): 5
